Measurements published in PMC9848300, “Discovery of novel enasidenib analogues targeting inhibition of mutant isocitrate dehydrogenase 2 as antileukaemic agents” (Journal of Enzyme Inhibition and Medicinal Chemistry, 2023).
Read-outs that look alike come from different tables or passages of the source.

What was measured:
CCRF-CEM = experiment: NCI 60 antitumor screening (single dose / five doses); type: cell-based; conditions: Homo sapiens, read-out: Growth inhibition percentage (GI %)
SR = experiment: as above; type: cell-based; conditions: Homo sapiens, read-out: Growth inhibition percentage (GI %)
EKVX = experiment: as above; type: cell-based; conditions: Homo sapiens; for inhibition at 10 µM: read-out: Growth inhibition percentage (GI %)
HOP-92 = experiment: as above; type: cell-based; conditions: Homo sapiens
HS 578T = experiment: NCI 60 antitumor screening (single dose); type: cell-based; conditions: Homo sapiens; HS 578T (breast cancer), single dose 10 μM; read-out: Growth inhibition percentage (GI %)
How it was run: (§1)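 Values are GI% (100 minus percent growth, G%) from the NCI 60 cell line screen at one 10 μM concentration. Tests were done in triplicate under NCI protocol, with a mean across the whole panel reported as well.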

NCI-H460 = experiment: NCI 60 antitumor screening (single dose); type: cell-based; conditions: Homo sapiens; NCI-H460 (non-small cell lung cancer), single dose 10 μM; read-out: Growth inhibition percentage (GI %)
How it was run: (§2)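 Values are GI% (100 − G%) from the NCI 60-line single-dose screen, compound at 10 μM.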

PC-3 = experiment: NCI 60 antitumor screening (single dose); type: cell-based; conditions: Homo sapiens; PC-3 (prostate cancer), single dose 10 μM; read-out: Growth inhibition percentage (GI %)
How it was run: as §1

SK-OV-3 = experiment: NCI 60 antitumor screening (single dose); type: cell-based; conditions: Homo sapiens; SK-OV-3 (ovarian cancer), single dose 10 μM; read-out: Growth inhibition percentage (GI %)
How it was run: as §2

COLO 205 = experiment: NCI 60 antitumor screening (single dose / five doses); type: cell-based; conditions: Homo sapiens
HT29 = experiment: as above; type: cell-based, human; conditions: Homo sapiens
SW-620 = experiment: as above; type: cell-based, human; conditions: Homo sapiens
SF-539 = experiment: as above; type: cell-based; conditions: Homo sapiens
SNB-75 = experiment: as above; type: cell-based; conditions: Homo sapiens
MALME-3M = experiment: as above; type: cell-based; conditions: Homo sapiens; for inhibition at 10 µM: read-out: Growth inhibition percentage (GI %)
MDA-MB-435 = experiment: as above; type: cell-based; conditions: Homo sapiens
SK-MEL-28 = experiment: as above; type: cell-based; conditions: Homo sapiens
SK-MEL-5 = experiment: as above; type: cell-based; conditions: Homo sapiens
UACC-257 = experiment: as above; type: cell-based; conditions: Homo sapiens
UACC-62 = experiment: as above; type: cell-based; conditions: Homo sapiens
IGROV1 = experiment: as above; type: cell-based; conditions: Homo sapiens
NCI/ADR-RES = experiment: as above; type: cell-based; conditions: Homo sapiens; for inhibition at 10 µM: read-out: Growth inhibition percentage (GI %)
A498 = experiment: as above; type: cell-based; conditions: Homo sapiens
ACHN = experiment: as above; type: cell-based; conditions: Homo sapiens; for inhibition at 10 µM: read-out: Growth inhibition percentage (GI %)
RXF 393 = experiment: as above; type: cell-based; conditions: Homo sapiens
SN 12C = experiment: as above; type: cell-based; conditions: Homo sapiens, SN12C; for inhibition at 10 µM: read-out: Growth inhibition percentage (GI %)
DU-145 = experiment: as above; type: cell-based; conditions: Homo sapiens
MDA-MB-231/ATCC = experiment: as above; type: cell-based; conditions: Homo sapiens
MDA-MB-468 = experiment: as above; type: cell-based; conditions: Homo sapiens

Fc1cccc(Cl)c1/C=N/Nc1nc(N/N=C/c2c(F)cccc2Cl)nc(N2CCCCC2)n1 [compound 7l, 2,4-Bis[(E)-2-[(2-Chloro-6-fluorophenyl)methylidene]hydrazin-1-yl]-6-(piperidin-1-yl)-1,3,5-triazine]
inhibition at 10 µM (CCRF-CEM; CCRF-CEM (leukaemia), single dose 10 μM): 77.7%
inhibition at 10 µM (SR; SR (leukaemia), single dose 10 μM): 83.9%
inhibition at 10 µM (EKVX; EKVX (non-small cell lung cancer), single dose 10 μM): 86.2%
GI50 (EKVX; EKVX, five doses (0.01–100 μM), read-out: GI50): 1.54 µM
inhibition at 10 µM (HOP-92; HOP-92 (non-small cell lung cancer), single dose 10 μM, read-out: Growth inhibition percentage (GI %)): 101%
GI50 (HOP-92; HOP-92, five doses (0.01–100 μM), read-out: GI50): 1.47 µM
inhibition at 10 µM (HS 578T): 66.7%
inhibition at 10 µM (NCI-H460): 80.1%
inhibition at 10 µM (PC-3): 81.3%
inhibition at 10 µM (SK-OV-3): 60.9%
inhibition at 10 µM (COLO 205; COLO 205 (colon cancer), single dose 10 μM, read-out: Growth inhibition percentage (GI %)): 117%
GI50 (COLO 205; COLO 205, five doses (0.01–100 μM), read-out: GI50): 1.78 µM
GI50 (HT29; HT-29, HT29, five doses (0.01–100 μM), read-out: GI50): 2.9 µM
inhibition at 10 µM (HT29; HT-29, HT29 (colon cancer), single dose 10 μM, read-out: Growth inhibition percentage (GI %)): 96.5%
GI50 (SW-620; SW-620, SW-620, five doses (0.01–100 μM), read-out: GI50): 3.51 µM
inhibition at 10 µM (SW-620; SW-620 (colon cancer), single dose 10 μM, read-out: Growth inhibition percentage (GI %)): 82.8%
inhibition at 10 µM (SF-539; SF-539 (CNS cancer), single dose 10 μM, read-out: Growth inhibition percentage (GI %)): 43.8%
GI50 (SF-539; SF-539, five doses (0.01–100 μM), read-out: GI50): 7.65 µM
inhibition at 10 µM (SNB-75; SNB-75 (CNS cancer), single dose 10 μM, read-out: Growth inhibition percentage (GI %)): 62.5%
GI50 (SNB-75; SNB-75, five doses (0.01–100 μM), read-out: GI50): 2.36 µM
inhibition at 10 µM (MALME-3M; MALME-3M (melanoma), single dose 10 μM): 95.8%
GI50 (MALME-3M; MALME-3M, five doses (0.01–100 μM), read-out: GI50): 2.21 µM
inhibition at 10 µM (MDA-MB-435; MDA-MB-435 (melanoma), single dose 10 μM, read-out: Growth inhibition percentage (GI %)): 96.2%
GI50 (MDA-MB-435; MDA-MB-435, five doses (0.01–100 μM), read-out: GI50): 2.86 µM
inhibition at 10 µM (SK-MEL-28; SK-MEL-28 (melanoma), single dose 10 μM, read-out: Growth inhibition percentage (GI %)): 55.1%
GI50 (SK-MEL-28; SK-MEL-28, five doses (0.01–100 μM), read-out: GI50): 3.41 µM
inhibition at 10 µM (SK-MEL-5; SK-MEL-5 (melanoma), single dose 10 μM, read-out: Growth inhibition percentage (GI %)): 41%
GI50 (SK-MEL-5; SK-MEL-5, five doses (0.01–100 μM), read-out: GI50): 1.88 µM
inhibition at 10 µM (UACC-257; UACC-257 (melanoma), single dose 10 μM, read-out: Growth inhibition percentage (GI %)): 88.3%
GI50 (UACC-257; UACC-257, five doses (0.01–100 μM), read-out: GI50): 2.39 µM
inhibition at 10 µM (UACC-62; UACC-62 (melanoma), single dose 10 μM, read-out: Growth inhibition percentage (GI %)): 81.7%
GI50 (UACC-62; UACC-62, five doses (0.01–100 μM), read-out: GI50): 2.35 µM
inhibition at 10 µM (IGROV1; IGROV-1, IGROV1 (ovarian cancer), single dose 10 μM, read-out: Growth inhibition percentage (GI %)): 82.3%
GI50 (IGROV1; IGROV-1, IGROV1, five doses (0.01–100 μM), read-out: GI50): 3.16 µM
inhibition at 10 µM (NCI/ADR-RES; NCI/ADR-RES (ovarian cancer), single dose 10 μM): 84.8%
GI50 (NCI/ADR-RES; NCI/ADR-RES, five doses (0.01–100 μM), read-out: GI50): 2.76 µM
inhibition at 10 µM (A498; A498 (renal cancer), single dose 10 μM, read-out: Growth inhibition percentage (GI %)): 47.2%
GI50 (A498; A498, five doses (0.01–100 μM), read-out: GI50): 2.4 µM
inhibition at 10 µM (ACHN; ACHN (renal cancer), single dose 10 μM): 95.8%
GI50 (ACHN; ACHN, five doses (0.01–100 μM), read-out: GI50): 3.04 µM
inhibition at 10 µM (RXF 393; RXF 393 (renal cancer), single dose 10 μM, read-out: Growth inhibition percentage (GI %)): 96.6%
GI50 (RXF 393; RXF 393, five doses (0.01–100 μM), read-out: GI50): 2.65 µM
inhibition at 10 µM (SN 12C; SN 12C (renal cancer), single dose 10 μM): 76.8%
GI50 (SN 12C; SN 12C, five doses (0.01–100 μM), read-out: GI50): 2.85 µM
inhibition at 10 µM (DU-145; DU-145 (prostate cancer), single dose 10 μM, read-out: Growth inhibition percentage (GI %)): 39%
GI50 (DU-145; DU-145, five doses (0.01–100 μM), read-out: GI50): 11.7 µM
GI50 (MDA-MB-231/ATCC; MDA-MB-231/ ATCC, five doses (0.01–100 μM), read-out: GI50): 7.65 µM
inhibition at 10 µM (MDA-MB-231/ATCC; MDA-MB-231/ATCC (breast cancer), single dose 10 μM, read-out: Growth inhibition percentage (GI %)): 57.9%
inhibition at 10 µM (MDA-MB-468; MDA-MB-468 (breast cancer), single dose 10 μM, read-out: Growth inhibition percentage (GI %)): 114%
GI50 (MDA-MB-468; MDA-MB-468, five doses (0.01–100 μM), read-out: GI50): 1.86 µM

C/C(=N\Nc1nc(N/N=C(\C)c2ccc([N+](=O)[O-])cc2)nc(N2CCOCC2)n1)c1ccc([N+](=O)[O-])cc1 [compound 8a, 2-(Morpholin-4-yl)-4,6-bis[(E)-2-[1–(4-nitrophenyl)ethylidene]hydrazin-1-yl]-1,3,5-triazine]
inhibition at 10 µM (CCRF-CEM; CCRF-CEM): 38.4%
inhibition at 10 µM (SR; SR): -13.1%
inhibition at 10 µM (EKVX; EKVX): 31.9%
inhibition at 10 µM (HOP-92; HOP-92, read-out: Growth inhibition percentage (GI %)): 35.9%
inhibition at 10 µM (HS 578T): 21.3%
inhibition at 10 µM (NCI-H460): 21.9%
inhibition at 10 µM (PC-3): 23.4%
inhibition at 10 µM (SK-OV-3): -13%
inhibition at 10 µM (COLO 205; COLO 205, read-out: Growth inhibition percentage (GI %)): 5.21%
inhibition at 10 µM (HT29; HT-29, read-out: Growth inhibition percentage (GI %)): 19.4%
inhibition at 10 µM (SW-620; SW-620, read-out: Growth inhibition percentage (GI %)): 4.48%
inhibition at 10 µM (SF-539; SF-539, read-out: Growth inhibition percentage (GI %)): 84.5%
inhibition at 10 µM (SNB-75; SNB-75, read-out: Growth inhibition percentage (GI %)): 19.4%
inhibition at 10 µM (MALME-3M; Malme-3M): 30.6%
inhibition at 10 µM (MDA-MB-435; MDA-MB-435, read-out: Growth inhibition percentage (GI %)): 15%
inhibition at 10 µM (SK-MEL-28; SK-MEL-28, read-out: Growth inhibition percentage (GI %)): 16.2%
inhibition at 10 µM (SK-MEL-5; SK-MEL-5, read-out: Growth inhibition percentage (GI %)): 32.9%
inhibition at 10 µM (UACC-257; UACC-257, read-out: Growth inhibition percentage (GI %)): 0.81%
inhibition at 10 µM (UACC-62; UACC-62, read-out: Growth inhibition percentage (GI %)): 14.7%
inhibition at 10 µM (IGROV1; IGROV-1, read-out: Growth inhibition percentage (GI %)): 6.22%
inhibition at 10 µM (NCI/ADR-RES; NCI/ADR-RES): 31.3%
inhibition at 10 µM (A498; A498, read-out: Growth inhibition percentage (GI %)): 33.9%
inhibition at 10 µM (ACHN; ACHN): 22.1%
inhibition at 10 µM (RXF 393; RXF 393, read-out: Growth inhibition percentage (GI %)): 26.3%
inhibition at 10 µM (SN 12C): -27.4%
inhibition at 10 µM (DU-145; DU-145, read-out: Growth inhibition percentage (GI %)): 19%
inhibition at 10 µM (MDA-MB-231/ATCC; MDA-MB-231, read-out: Growth inhibition percentage (GI %)): 56.5%
inhibition at 10 µM (MDA-MB-468; MDA-MB-468, read-out: Growth inhibition percentage (GI %)): 20.4%
